The numbers were not newly measured in patent publication US6391332B1, “Therapeutic micronutrient composition for severe trauma, burns and critical illness” (Baxter International, Inc., priority 2000, dated 2002), which cites them from elsewhere.

The conditions of series [1]: doses exceeding 40 grams a day.
The subject of a further series is burn patients. The conditions noted are these: 2-10 grams given during burn resuscitation.
The subject of another series is critically ill patients. The conditions noted are these: glutamine supplementation, clinical trials.

In the case of `N=C(N)NCCC[C@H](N)C(=O)O` [arginine, L-arginine], the toxicity result in series [1] is “non-toxic”. With `O=C1O[C@H]([C@@H](O)CO)C(O)=C1O` [ascorbic acid], the “vascular permeability and fluid requirements” value in the series on burn patients was “significantly decrease”. `NC(=O)CC[C@H](N)C(=O)O` [glutamine, L-glutamine]: the infection rate entry with critically ill patients is “decreased infection rate”.
